Measurements: patent US20140221340A1 (KYOWA HAKKO KIRIN CO., LTD., priority 2011, published 2014)

Biological target: T1, human CCR10 (Homo sapiens, UniProt P46092)
T1 construct: expressed in transfected cells; host or cells: KJMGER8 cell (cell line derived from Namalwa cell); expression induced with 10 nmol/L β-estradiol
T1 sequence (P46092 1-362): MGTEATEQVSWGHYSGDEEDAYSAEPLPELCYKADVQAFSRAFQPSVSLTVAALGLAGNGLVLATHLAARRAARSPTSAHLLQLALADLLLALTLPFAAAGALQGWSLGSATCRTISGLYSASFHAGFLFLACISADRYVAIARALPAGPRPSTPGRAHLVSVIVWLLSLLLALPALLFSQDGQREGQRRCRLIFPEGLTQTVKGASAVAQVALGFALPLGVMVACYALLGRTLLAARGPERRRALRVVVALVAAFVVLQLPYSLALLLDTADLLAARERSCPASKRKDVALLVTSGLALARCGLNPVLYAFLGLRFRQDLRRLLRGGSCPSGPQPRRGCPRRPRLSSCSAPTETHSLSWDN
Assay: Calcium assay of human CCR10 (inhibition of CTACK-induced increase in intracellular calcium ion concentration in hCCR10G16 cells)
Assay type: cell-based
Settings: test compound 100 nmol/L, human recombinant CTACK, hCCR10G16 cells (KJMGER8/Namalwa-derived, Gα16 co-expressed), FLIPR or FDSS; for inhibition at 0.1 µM: read-out: Inhibitory rate (%) for an increase in calcium ion concentration
How it was run: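 KJMGER8-derived hCCR10G16 cells (human CCR10 plus Gα16, expression induced 24 h with 10 nmol/L β-estradiol) were dye-loaded and preincubated with compound for 30 min at 37 °C, then stimulated with CTACK (300 nmol/L stock). Calcium flux over ~5 min (max−min fluorescence) gave percent inhibition versus DMSO control.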

| inhibition at 0.1 µM [%] | Inhibitory rate (%) for an increase in calcium ion concentration [%] | Compound |
| --- | --- | --- |
| > 100 | – | Cc1ccc(Cl)c(Nc2c(C(=O)N3CCC4(CC3)OCc3ccccc34)cnc3c(S(=O)(=O)NC(=O)C4(C)COC4)cnn23)c1 [a-58, N-{7-(2-Chloro-5-methylphenylamino)-6-[3H-spiro(isobenzofuran-1,4′-piperidine)-1′-carbonyl]pyrazolo[1,5-a]pyrimidin-3-ylsulfonyl}-3-methyloxetane-3-carboxamide] |
| 90.2 | – | CCC(=O)NS(=O)(=O)c1cnn2c(Nc3cc(C)ccc3Cl)c(C(=O)N3CC4(C3)CN(c3ccc(F)cc3)C4)cnc12 [a-60, N-{7-(2-Chloro-5-methylphenylamino)-6-[6-(4-fluorophenyl)-2,6-diazaspiro[3,3]heptane-2-carbonyl]pyrazolo[1,5-a]pyrimidin-3-ylsulfonyl}propionamide] |
| 24.3 | – | CCNC(=O)NS(=O)(=O)c1cnn2c(Nc3cc(C)ccc3Cl)c(C(=O)N3CC4(C3)CN(c3ccc(F)cc3)C4)cnc12 [a-61, 7-(2-Chloro-5-methylphenylamino)-N-(ethylcarbamoyl)-6-[6-(4-fluorophenyl)-2,6-diazaspiro[3,3]heptane-2-carbonyl]pyrazolo[1,5-a]pyrimidine-3-sulfonamide] |
| > 100 | – | CCN(CC)S(=O)(=O)c1cnn2c(Nc3ccc(F)cc3C)c(C(=O)N3CCC(c4ccccc4)CC3)cnc12 [a-62, N,N-Diethyl-7-(4-fluoro-2-methylphenylamino)-6-(4-phenylpiperidine-1-carbonyl)pyrazolo[1,5-a]pyrimidine-3-sulfonamide] |
| 58.8 | – | CNCC(=O)NS(=O)(=O)c1cnn2c(Nc3ccc(F)cc3C)c(C(=O)N3CCC(c4ccccc4)CC3)cnc12 [a-63, N-[7-(4-Fluoro-2-methylphenylamino)-6-(4-phenylpiperidine-1-carbonyl)pyrazolo[1,5-a]pyrimidin-3-ylsulfonyl]-2-methylaminoacetamide] |
| 94.2 | – | COCC(=O)NS(=O)(=O)c1cnn2c(Nc3ccc(F)cc3C)c(C(=O)N3CCC(c4ccccc4)CC3)cnc12 [a-64, N-[7-(4-Fluoro-2-methylphenylamino)-6-(4-phenylpiperidine-1-carbonyl)pyrazolo[1,5-a]pyrimidin-3-ylsulfonyl]-2-methoxyacetamide] |
| > 100 | – | Cc1cc(F)ccc1Nc1c(C(=O)N2CCC(c3ccccc3)CC2)cnc2c(S(=O)(=O)NC(=O)CO)cnn12 [a-65, N-[7-(4-Fluoro-2-methylphenylamino)-6-(4-phenylpiperidine-1-carbonyl)pyrazolo[1,5-a]pyrimidin-3-ylsulfonyl]-2-hydroxyacetamide] |
| 63.7 | – | Cc1cc(F)ccc1Nc1c(C(=O)N2CCC(c3ccccc3)CC2)cnc2c(S(=O)(=O)NC(=O)Nc3ccccc3)cnn12 [a-67, 7-(4-Fluoro-2-methylphenylamino)-N-phenylcarbamoyl-6-(4-phenylpiperidine-1-carbonyl)pyrazolo[1,5-a]pyrimidine-3-sulfonamide] |
| 85.9 | – | Cc1cc(F)ccc1Nc1c(C(=O)N2CCC(c3ccccc3)CC2)cnc2c(S(=O)(=O)NC(=O)N3CCOCC3)cnn12 [a-68, N-[7-(4-Fluoro-2-methylphenylamino)-6-(4-phenylpiperidine-1-carbonyl)pyrazolo[1,5-a]pyrimidin-3-ylsulfonyl]morpholine-4-carboxamide] |
| 81.8 | – | CCNC(=S)NS(=O)(=O)c1cnn2c(Nc3ccc(F)cc3C)c(C(=O)N3CCC(c4ccccc4)CC3)cnc12 [a-69, N-Ethylcarbamothioyl-7-(4-fluoro-2-methylphenylamino)-6-(4-phenylpiperidine-1-carbonyl)pyrazolo[1,5-a]pyrimidine-3-sulfonamide] |
| > 100 | – | Cc1cc(F)ccc1Nc1c(C(=O)N2CCC(c3ccccc3)CC2)cnc2c(S(=O)(=O)NC(=O)C(F)(F)F)cnn12 [a-70, 2,2,2-Trifluoro-N-[7-(4-fluoro-2-methylphenylamino)-6-(4-phenylpiperidine-1-carbonyl)pyrazolo[1,5-a]pyrimidin-3-ylsulfonyl]acetamide] |
| 88.8 | – | Cc1cc(F)ccc1Nc1c(C(=O)N2CCC(c3ccccc3)CC2)cnc2c(S(=O)(=O)NS(C)(=O)=O)cnn12 [a-71, 7-(4-Fluoro-2-methylphenylamino)-N-methylsulfonyl-6-(4-phenylpiperidine-1-carbonyl)pyrazolo[1,5-a]pyrimidine-3-sulfonamide] |
| 90.7 | – | COC(=O)NS(=O)(=O)c1cnn2c(Nc3ccc(F)cc3C)c(C(=O)N3CCC(c4ccccc4)CC3)cnc12 [a-72, Methyl 7-(4-fluoro-2-methylphenylamino)-6-(4-phenylpiperidine-1-carbonyl)pyrazolo[1,5-a]pyrimidin-3-ylsulfonylcarbamate] |
| – | 68.9 | Cc1cc(F)ccc1Nc1c(C(=O)N2CCC(c3ccccc3)CC2)cnc2c(S(=O)(=O)N=CN(C)C)cnn12 [a-73, N-[7-(4-Fluoro-2-methylphenylamino)-6-(4-phenylpiperidine-1-carbonyl)pyrazolo[1,5-a]pyrimidin-3-ylsulfonyl]-N,N-dimethylformimidamide] |
| > 100 | – | COC(=O)NS(=O)(=O)c1cnn2c(Nc3cc(C)ccc3C)c(C(=O)N3CCC(c4ccccc4)CC3)cnc12 [a-74, Methyl 7-(2,5-dimethylphenylamino)-6-(4-phenylpiperidine-1-carbonyl)pyrazolo[1,5-a]pyrimidin-3-ylsulfonylcarbamate] |
| 89.4 | – | O=C(NS(=O)(=O)c1cnn2c(NCc3ccccc3)c(C(=O)N3CCC(c4ccccc4)CC3)cnc12)C1CC1 [a-75, N-[7-Benzylamino-6-(4-phenylpiperidine-1-carbonyl)pyrazolo[1,5-a]pyrimidin-3-ylsulfonyl]cyclopropanecarboxamide] |
| 95.1 | – | CCNC(=O)NS(=O)(=O)c1cnn2c(NCc3ccccc3)c(C(=O)N3CCC(c4ccccc4)CC3)cnc12 [a-76, 7-Benzylamino-N-ethylcarbamoyl-6-(4-phenylpiperidine-1-carbonyl)pyrazolo[1,5-a]pyrimidine-3-sulfonamide] |
| > 100 | – | Cc1ccc(Cl)c(Nc2c(C(=O)N3CCC(c4ccc(F)cc4)CC3)cnc3c(S(=O)(=O)NC(N)=O)cnn23)c1 [a-77, N-Carbamoyl-7-(2-chloro-5-methylphenylamino)-6-[4-(4-fluorophenyl)piperidine-1-carbonyl]pyrazolo[1,5-a]pyrimidine-3-sulfonamide] |
| > 100 | – | O=C(c1cnc2c(S(=O)(=O)Nc3nncs3)cnn2c1Nc1cc(Cl)ccc1Cl)N1CCC(c2ccc(F)cc2)CC1 [a-78, 7-(2,5-Dichlorophenylamino)-6-[4-(4-fluorophenyl)piperidine-1-carbonyl]-N-(1,3,4-thiadiazol-2-yl)pyrazolo[1,5-a]pyrimidine-3-sulfonamide] |
| > 100 | – | O=C(c1cnc2c(S(=O)(=O)Nc3cccnn3)cnn2c1Nc1cc(Cl)ccc1Cl)N1CCC(c2ccc(F)cc2)CC1 [a-79, 7-(2,5-Dichlorophenylamino)-6-[4-(4-fluorophenyl)piperidine-1-carbonyl]-N-(pyridazin-3-yl)pyrazolo[1,5-a]pyrimidine-3-sulfonamide] |
| > 100 | – | O=C(c1cnc2c(S(=O)(=O)Nc3ncccn3)cnn2c1Nc1cc(Cl)ccc1Cl)N1CCC(c2ccc(F)cc2)CC1 [a-80, 7-(2,5-Dichlorophenylamino)-6-[4-(4-fluorophenyl)piperidine-1-carbonyl]-N-(pyrimidin-2-yl)pyrazolo[1,5-a]pyrimidine-3-sulfonamide] |
